Experiment [1] is described as follows: Reduction of high glucose-induced apoptosis in REC (unknown origin) assessed as decrease in caspase 3 level at 0.05 to 10 uM after 30 to 60 mins by ELISA. The class given is functional. On the technique in general: An ELISA detects its analyte on a solid surface through an enzyme-linked reagent.
The species entered for experiment [2] is Rattus norvegicus. Put plainly: Reduction of high glucose-induced apoptosis in rat rMC-1 cells assessed as decrease in caspase 3 level at 0.05 to 10 uM after 1 to 24 hrs by ELISA. The class given is functional, cell-based.
The species named for experiment [3] is Rattus norvegicus. Put plainly: Antiinflammatory activity in rat rMC-1 cells assessed as decrease of high glucose-induced TNFalpha level at 0.05 to 10 uM after 1 to 24 hrs by ELISA. The class given is functional, cell-based.
Experiment [4] can be described thus: Reduction of high glucose-induced apoptosis in REC (unknown origin) assessed as decrease in caspase 3 level at 10 uM after 15 to 45 mins by ELISA. The class given is functional.
Experiment [5] can be described thus: Antiinflammatory activity in REC (unknown origin) assessed as effect on high glucose-induced TNFalpha level at 0.05 to 10 uM after 30 to 60 mins by ELISA. The class given is functional.
Experiment [6] is described as follows: Antiinflammatory activity in REC (unknown origin) assessed as decrease of high glucose-induced TNFalpha level at 0.05 to 10 uM after 30 to 60 mins by ELISA. The class given is functional.
In experiment [7] the target is Beta-1 adrenergic receptor (Homo sapiens) (UniProt P08588). Put plainly: Displacement of […]-iodocyanopindolol from beta1-adrenergic receptor in REC (unknown origin) at 0.01 to 10000 nM. On the technique in general: Displacement assays read how much labelled ligand stays bound in the presence of the test substance.
Beta-1 adrenergic receptor (Homo sapiens), sequence (P08588 whole entry, looked up): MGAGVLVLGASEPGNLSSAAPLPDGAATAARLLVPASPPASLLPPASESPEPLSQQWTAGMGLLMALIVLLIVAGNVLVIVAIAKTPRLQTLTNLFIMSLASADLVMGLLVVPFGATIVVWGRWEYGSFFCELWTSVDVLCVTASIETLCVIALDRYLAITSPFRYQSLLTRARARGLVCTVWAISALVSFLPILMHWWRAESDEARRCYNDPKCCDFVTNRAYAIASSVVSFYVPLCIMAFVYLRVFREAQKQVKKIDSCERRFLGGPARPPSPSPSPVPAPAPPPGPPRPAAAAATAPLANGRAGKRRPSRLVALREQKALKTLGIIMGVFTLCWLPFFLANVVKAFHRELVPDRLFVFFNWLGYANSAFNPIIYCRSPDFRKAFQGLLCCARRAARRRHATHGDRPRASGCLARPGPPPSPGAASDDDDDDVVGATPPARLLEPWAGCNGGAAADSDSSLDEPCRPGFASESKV
Experiment [8] has as its target Beta-1 adrenergic receptor (Rattus norvegicus) (UniProt P18090). The experiment is described as follows: Displacement of […]-iodocyanopindolol from beta1-adrenergic receptor in rat rMC-1 cells at 0.01 to 10000 nM. The class given is cell-based.
Experiment [9] is described as follows: Antiinflammatory activity in REC (unknown origin) assessed as increase of high glucose-induced TNFalpha level at 0.05 to 10 uM after 30 to 60 mins by ELISA. It is filed as functional.

Calls of active or inactive are those of the source. The rule behind the calls is not given here.

Beta-1 adrenergic receptor (Rattus norvegicus), sequence (P18090 whole entry, looked up): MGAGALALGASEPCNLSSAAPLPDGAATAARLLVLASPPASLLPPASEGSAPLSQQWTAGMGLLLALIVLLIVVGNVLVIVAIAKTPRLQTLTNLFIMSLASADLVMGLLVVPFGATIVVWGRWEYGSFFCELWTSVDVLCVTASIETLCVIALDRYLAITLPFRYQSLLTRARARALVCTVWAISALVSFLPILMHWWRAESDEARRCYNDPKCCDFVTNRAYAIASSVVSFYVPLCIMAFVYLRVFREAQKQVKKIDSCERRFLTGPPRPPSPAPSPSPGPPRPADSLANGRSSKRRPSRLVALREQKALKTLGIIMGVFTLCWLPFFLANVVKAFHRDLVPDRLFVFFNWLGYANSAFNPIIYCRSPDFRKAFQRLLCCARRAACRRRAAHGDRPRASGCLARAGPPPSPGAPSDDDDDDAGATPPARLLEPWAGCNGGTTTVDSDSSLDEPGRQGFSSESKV

In the case of `Oc1ccc([C@@H](O)CNCCCN2CCOCC2)cc1O`, the outcome in experiment [1] and in [4] was Active. In addition, the result in experiment [2], in experiment [3] and in experiment [5] was inactive.

Take `CC(C)NC[C@H](O)c1ccc(O)c(O)c1` (stereo in doubt; S-1): the outcome in [1], in experiment [2] and in experiment [5] was inactive. For the same compound, in experiment [3], the outcome was Active.

As for `CC(C)NC[C@H](O)c1ccc(O)c(O)c1` (stereo in doubt; R-1), the outcome in [1], in experiment [3] and in experiment [4] was Active. In addition, the result in [2] and in experiment [5] was inactive.

In the case of `O=C(NCCN(C[C@H](O)c1ccc(O)c(O)c1)C(=O)N1CCOCC1)N1CCOCC1`, the outcome in experiment [1], in experiment [6] and in [4] was Active. The outcome in [2] and in experiment [3] was inactive. In addition, the inhibition entry in experiment [7] and in [8] was “inactive” each time.

On to `O=C(NC[C@H](O)c1ccc(O)c(O)c1)N1CCOCC1`, for which the outcome in experiment [1], in experiment [9], in experiment [2] and in experiment [3] was inactive.

The record behind these values is ChEMBL document CHEMBL3217654, “Beta-adrenergic receptor signaling by the isomers of isoproterenol and like drugs in retinal endothelial cells and Muller cells” (Medchemcomm, 2011).
